According to patent US5512550A, “Method for inhibiting angiogenesis with modified platelet factor-4 and cleaved platelet factor-4” (Eli Lilly and Company, priority 1995, dated 1996):
Positions of bridges follow the written chain, without caps; N, C: chain ends. Chains are numbered I, II in the order given. No end group written: not given here.

Assays:
[1] = Heparin binding (heparin affinity chromatography)
Text: The eluted proteins are then contacted with a heparin affinity resin. The ordinarily skilled artisan will readily realize that this step is best achieved in a column chromatography mode. Heparin affinity columns are commercially available from some of the same vendors mentioned above. In this step, the molecules of interest, both MPF-4 or CPF-4, bind to the heparin column and are eluted using an increasing linear salt gradient. The preferred salt is NaCl, and the portion of the gradient that is preferably collected is the 0.1-2.0M portion. The more highly preferred portion of the gradient to collect is the 0.7-2.0M portion.
The C4-pool was further fractionated by heparin affinity chromatography on a Econo-pac™ 5 ml heparin-sepharose cartridge (Biorad, Richmond, Calif. 94804). The bound proteins were eluted by a linear gradient of 0 to 2.0M NaCl in phosphate buffer saline (PBS) at a flow rate of 2.0 ml/min. The proteins that eluted from the column were pooled into three fractions: (1) non-heparin binding (flow through), (2) low-affinity heparin binding (0 to 0.7M NACl), and (3) high-affinity heparin binding (0.7M to 2.0M NACl) fractions.

[2] = test system: primary retinal capillary endothelial cells or bovine heart endothelial cells; assay: Endothelial cell proliferation inhibition assay; assay type: cell-based; conditions: for IC50, inhibition of endothelial cell proliferation: endothelial cells with 20 ng/ml fibroblast growth factor, grown four days, cell count, average of 4 wells (FIG. 1); for IC50: same experiment, IC50 restated in nM; for potency of endothelial cell proliferation inhibition compared with PF-4: under identical conditions as PF-4
Description: Primary retinal capillary endothelial cell cultures were prepared in substantial accordance with the procedure described in Buzney et al., Retinal Vascular Endothelial Cells and Pericytes: Differential Growth Characteristics in vitro, Invest. Opthalmol. Visual Sci. 24: 470-483 (1983) and separated from contaminating cells as described in Voyta et al., Identification and Isolation of Endothelial Cells Based on their Increased Uptake of Acetylated-low density Lipoprotein, J. Cell Biol, 99: 2034-2040 (1981).
Alternatively, bovine heart endothelial cells were obtained (American Type Culture Collection; Rockville Md. 20852) for use in the assay. Irrespective of source, the endothelial cells were seeded into 24 well tissue culture plates at a cell density of 10,000 cells/well in Dulbecco's modified Eagle Medium (GIBCO; Grand Island, N.Y.) supplemented with 5% bovine serum albumin, 1% penicillin-streptomycin, 1% L-glutamine, and 20 ng/ml fibroblast growth factor. Immediately after seeding the cells, various amounts of PF-4 (Sigma Chemical Co.; St. Louis, Mo. 63178), MPF-4 , or CPF-4 (isolated as describe in the above examples) were added to individual growth wells. MPF-4 and CPF-4 were tested at final concentrations ranging from 0.001 to 1 μg/ml. For comparison, native PF-4 was tested over a range of 0.001 to 3 μg/ml, and supplemented medium alone served as the negative control. The endothelial cell cultures were allowed to grow for four days at 37° C., 5% CO2 in a humidified tissue culture incubator. The cultures were then harvested individually by trypsinization and counted using a Zm-Coulter Counter (Coulter Electronics. Inc.; Opa Locka Fla. 33054).
The results were plotted in FIG. 1, and each point on the graph represented the average of 4 data points; ie one growth well per data point.

heparin binding [1] | Molecule | IC50, inhibition of endothelial cell proliferation [2] | IC50 [2] [nM] | potency of endothelial cell proliferation inhibition compared with PF-4 [2]
bind heparin | MPF-4: N-terminally processed form of human platelet factor-4, 54 C-terminal residues beginning with Ser-17, SEQ ID NO: 1 (SQVRPRHITSLEVIKAGPHCPTAQLIATLKNGRKICLDLQAPLYKKIIKKLLES) | 0.03 to 0.05 mg/L | ~7 | more potent inhibitors of endothelial cell proliferation
 | PF-4: Native platelet factor-4 (Sigma Chemical Co.), tested for comparison [reference compound] | 0.8 to 1 mg/L | ~130 | 
bind heparin | CPF-4: Proteolytically cleaved, non-reduced PF-4: 16-residue chain (SEQ ID NO: 2) disulfide bonded to 54-residue chain (SEQ ID NO: 1) (protein, disulfide I:10-II:20, I:12-II:36; not fully specified) chain 1: EAEEDGDLQCLCVKTT chain 2: SQVRPRHITSLEVIKAGPHCPTAQLIATLKNGRKICLDLQAPLYKKIIKKLLES | approximately 150 ng/ml | ~20 | more potent inhibitors of endothelial cell proliferation
